In patent US20210379085A1, “HALOGENATED SALICYLANILIDES FOR TREATING THE SYMPTOMS OF DERMATITIS” (Union Therapeutics A/S, priority 2018, published 2021):

Key:
[1] = Systemic exposure to niclosamide (serum) after topical application in healthy volunteers; assay type: in vivo; conditions: human, after topical niclosamide formulations twice daily 7 days and final dose Day 8
Procedure: The skin biopsies were taken using sterile single use disposable biopsy punches (BP40F, Kai Europe GmbH, Solingen, Germany). For the 6 non-treated healthy volunteers biopsies were taken on Day 1. 10 mL of blood was collected at day 1 for the method validation group to determine niclosamide concentration in the blood.

[2] = tested on: skin barrier and inflammation biomarkers in lesional skin biopsies; experiment: qRT-PCR (TLDA) biomarker gene expression in lesional skin biopsies (Example 3); assay type: in vivo, human; conditions: fold change, topical niclosamide 2% once daily 3 weeks, AD lesional skin
Procedure: (§1) Patients received topical applications of a niclosamide 2% composition and vehicle once daily for 3 weeks, followed by a 1-week follow up period. Topical niclosamide 2% and vehicle was applied on two separate target lesions of atopic dermatitis (lesions of at least 3×3-cm that are at least 2 cm apart, excluding the face, scalp, genitals, hands, and feet). The application areas (5×5-cm) were randomized (1:1) to once daily application of niclosamide 2% or vehicle at 5 mg/cm^2 without occlusion 6 days per week. Patients came to the study site for all study product application for a total of 3 weeks.
Skin barrier and inflammation biomarker levels were determined from lesional skin biopsies from application areas.
The skin biopsy samples were analysed by immunohistochemistry (IHC), and by gene expression studies by RT-PCR using TaqMan Low Density Array (TLDA), and by microarray using Affymetrix U133A Plus 2. The immunohistochemistry (IHC) was used to analyse cell biomarkers. The methodologies as disclosed by Guttman-Yassky et al, “Major differences in inflammatory dendritic cells and their products distinguish atopic dermatitis from psoriasis”, The Journal of Allergy and Clinical Immunology, vol. 119, issue 5, pages 1210-1217, 2007, were followed except for that U133A Plus 2-set Gene Chip probe arrays was used instead of U95A-set Gene Chip probe arrays.
Expression values (threshold cycle [Ct]) were normalized to Rplp0 by negatively transforming the Ct values to −dCt (IL17A was normalized to hARP, as analysed by qPCR). The undetected −dCt values were estimated for each gene as the 20% of the minimum across all samples. qRT-PCR expression data were modelled using a mixed effect model with Visit and Treatment Area as a fixed effect and a random intercept for each patient. This formulation intrinsically models the within patient correlation structure as in the case of a paired t-test. This approach introduces less bias than restricting the analysis for those patients who completed the study. Contrasts were used to estimate the fold changes with treatment within each treatment group and conduct hypothesis testing.

[3] = tested on: lesional skin of patients with moderate atopic dermatitis; experiment: Skin thickness in lesional skin biopsies, Phase II atopic dermatitis study (Example 3); assay type: in vivo, human; conditions: Day 22, compared to baseline and compared to vehicle; topical niclosamide 2% once daily 3 weeks
Procedure: as §1
Three skin biopsies were collected in all patients (one from lesional skin at baseline, pre-dosing at Day 1, and two from lesional skin at Day 22 (one where topical niclosamide 2% had been applied and one where the vehicle had been applied). The lesional skin biopsies were analysed for skin thickness and inflammation biomarkers.

[4] = Day 22, vs vehicle-treated lesion
[5] = Day 22 vs baseline, listed as niclosamide

For `O=C(Nc1ccc([N+](=O)[O-])cc1Cl)c1cc(Cl)ccc1O` [Niclosamide, niclosamide], the concentration at 8 day [1] was 0.24 ng/mL, the “CAMP expression, Niclosamide vs. Vehicle (qRT-PCR)” value [2, 4] was −1.33 and the “CCL5 expression, Niclosamide vs. Vehicle (qRT-PCR)” value [2, 4] was −1.03. The “CCL17 expression, Niclosamide vs. Vehicle (qRT-PCR)” value [2, 4] was −1.37, the “CCL18 expression, Niclosamide vs. Vehicle (qRT-PCR)” value [2, 4] was −2.02 and the “CCL20 expression, Niclosamide vs. Vehicle (qRT-PCR)” value [2, 4] was −2.25. For the same compound, the “CCL22 expression, Niclosamide vs. Vehicle (qRT-PCR)” value [2, 4] was −1.49, the “CCL26 expression, Niclosamide vs. Vehicle (qRT-PCR)” value [2, 4] was −1.49 and the “CXCL1 expression, Niclosamide vs. Vehicle (qRT-PCR)” value [2, 4] was −1.63. The “CXCL2 expression, Niclosamide vs. Vehicle (qRT-PCR)” value [2, 4] was −1.21, the “CXCL9 expression, Niclosamide vs. Vehicle (qRT-PCR)” value [2, 4] was 1.16 and the “CXCL10 expression, Niclosamide vs. Vehicle (qRT-PCR)” value [2, 4] was −1.10. The “DEFB4A/DEFB4B expression, Niclosamide vs. Vehicle (qRT-PCR)” value [2, 4] was −2.06, the “FLG expression, Niclosamide vs. Vehicle (qRT-PCR)” value [2, 4] was 1.30 and the “FOXP3 expression, Niclosamide vs. Vehicle (qRT-PCR)” value [2, 4] was −1.14. The “IFNg expression, Niclosamide vs. Vehicle (qRT-PCR)” value [2, 4] was 1.19, the “IL1B expression, Niclosamide vs. Vehicle (qRT-PCR)” value [2, 4] was −1.01 and the “IL2 expression, Niclosamide vs. Vehicle (qRT-PCR)” value [2, 4] was −1.36. For the same compound, the “IL5 expression, Niclosamide vs. Vehicle (qRT-PCR)” value [2, 4] was −1.47, the “IL6 expression, Niclosamide vs. Vehicle (qRT-PCR)” value [2, 4] was −1.24 and the “IL8 expression, Niclosamide vs. Vehicle (qRT-PCR)” value [2, 4] was −1.46. For the same compound, the “IL9 expression, Niclosamide vs. Vehicle (qRT-PCR)” value [2, 4] was −1.17, the “IL10 expression, Niclosamide vs. Vehicle (qRT-PCR)” value [2, 4] was −1.51 and the “IL12A expression, Niclosamide vs. Vehicle (qRT-PCR)” value [2, 4] was 1.09. For the same compound, the “IL12B expression, Niclosamide vs. Vehicle (qRT-PCR)” value [2, 4] was −1.42, the “IL13 expression, Niclosamide vs. Vehicle (qRT-PCR)” value [2, 4] was −1.59 and the “IL15RA expression, Niclosamide vs. Vehicle (qRT-PCR)” value [2, 4] was −1.12. For the same compound, the “IL15 expression, Niclosamide vs. Vehicle (qRT-PCR)” value [2, 4] was −1.14, the “IL17A expression, Niclosamide vs. Vehicle (qRT-PCR)” value [2, 4] was −1.40 and the “IL17C expression, Niclosamide vs. Vehicle (qRT-PCR)” value [2, 4] was −2.35. The “IL17F expression, Niclosamide vs. Vehicle (qRT-PCR)” value [2, 4] was 1.37, the “IL19 expression, Niclosamide vs. Vehicle (qRT-PCR)” value [2, 4] was 1.16 and the “IL22 expression, Niclosamide vs. Vehicle (qRT-PCR)” value [2, 4] was −1.97. The “IL23A expression, Niclosamide vs. Vehicle (qRT-PCR)” value [2, 4] was −1.37, the “IL31 expression, Niclosamide vs. Vehicle (qRT-PCR)” value [2, 4] was −1.46 and the “IL33 expression, Niclosamide vs. Vehicle (qRT-PCR)” value [2, 4] was 1.11. For the same compound, the “KRT16 expression, Niclosamide vs. Vehicle (qRT-PCR)” value [2, 4] was −1.60, the “LOR expression, Niclosamide vs. Vehicle (qRT-PCR)” value [2, 4] was 1.27 and the “MMP12 expression, Niclosamide vs. Vehicle (qRT-PCR)” value [2, 4] was −1.90. For the same compound, the “PI3 expression, Niclosamide vs. Vehicle (qRT-PCR)” value [2, 4] was −1.93, the “PPL expression, Niclosamide vs. Vehicle (qRT-PCR)” value [2, 4] was 1.04 and the “S100A7 expression, Niclosamide vs. Vehicle (qRT-PCR)” value [2, 4] was −2.20. The “S100A8 expression, Niclosamide vs. Vehicle (qRT-PCR)” value [2, 4] was −2.02, the “S100A9 expression, Niclosamide vs. Vehicle (qRT-PCR)” value [2, 4] was −1.97 and the “S100A12 expression, Niclosamide vs. Vehicle (qRT-PCR)” value [2, 4] was −2.11. The “TSLPR expression, Niclosamide vs. Vehicle (qRT-PCR)” value [2, 4] was −1.36, the “CAMP expression, Niclosamide vs. Predose (qRT-PCR)” value ([2]; Day 22 vs baseline) was −3.02 and the “CCL5 expression, Niclosamide vs. Predose (qRT-PCR)” value ([2]; Day 22 vs baseline) was −1.22. For the same compound, the “CCL17 expression, Niclosamide vs. Predose (qRT-PCR)” value ([2]; Day 22 vs baseline) was −2.02, the “CCL18 expression, Niclosamide vs. Predose (qRT-PCR)” value ([2]; Day 22 vs baseline) was −2.45 and the “CCL20 expression, Niclosamide vs. Predose (qRT-PCR)” value ([2]; Day 22 vs baseline) was −1.96. For the same compound, the “CCL22 expression, Niclosamide vs. Predose (qRT-PCR)” value ([2]; Day 22 vs baseline) was −1.95, the “CCL26 expression, Niclosamide vs. Predose (qRT-PCR)” value ([2]; Day 22 vs baseline) was −1.03 and the “CXCL1 expression, Niclosamide vs. Predose (qRT-PCR)” value ([2]; Day 22 vs baseline) was −2.80. For the same compound, the “CXCL2 expression, Niclosamide vs. Predose (qRT-PCR)” value ([2]; Day 22 vs baseline) was −1.89, the “CXCL9 expression, Niclosamide vs. Predose (qRT-PCR)” value ([2]; Day 22 vs baseline) was −1.51 and the “CXCL10 expression, Niclosamide vs. Predose (qRT-PCR)” value ([2]; Day 22 vs baseline) was −1.64. For the same compound, the “DEFB4A/DEFB4B expression, Niclosamide vs. Predose (qRT-PCR)” value ([2]; Day 22 vs baseline) was −4.09, the “FLG expression, Niclosamide vs. Predose (qRT-PCR)” value ([2]; Day 22 vs baseline) was 1.50 and the “FOXP3 expression, Niclosamide vs. Predose (qRT-PCR)” value ([2]; Day 22 vs baseline) was −1.39. The “IFNg expression, Niclosamide vs. Predose (qRT-PCR)” value ([2]; Day 22 vs baseline) was −1.11, the “IL1B expression, Niclosamide vs. Predose (qRT-PCR)” value ([2]; Day 22 vs baseline) was −1.64 and the “IL2 expression, Niclosamide vs. Predose (qRT-PCR)” value ([2]; Day 22 vs baseline) was −1.20. For the same compound, the “IL5 expression, Niclosamide vs. Predose (qRT-PCR)” value ([2]; Day 22 vs baseline) was −2.38, the “IL6 expression, Niclosamide vs. Predose (qRT-PCR)” value ([2]; Day 22 vs baseline) was −2.34 and the “IL8 expression, Niclosamide vs. Predose (qRT-PCR)” value ([2]; Day 22 vs baseline) was −3.78. For the same compound, the “IL9 expression, Niclosamide vs. Predose (qRT-PCR)” value ([2]; Day 22 vs baseline) was −1.91, the “IL10 expression, Niclosamide vs. Predose (qRT-PCR)” value ([2]; Day 22 vs baseline) was −1.85 and the “IL12A expression, Niclosamide vs. Predose (qRT-PCR)” value ([2]; Day 22 vs baseline) was −1.01. For the same compound, the “IL12B expression, Niclosamide vs. Predose (qRT-PCR)” value ([2]; Day 22 vs baseline) was −2.01, the “IL13 expression, Niclosamide vs. Predose (qRT-PCR)” value ([2]; Day 22 vs baseline) was −2.06 and the “IL15RA expression, Niclosamide vs. Predose (qRT-PCR)” value ([2]; Day 22 vs baseline) was −1.46. For the same compound, the “IL15 expression, Niclosamide vs. Predose (qRT-PCR)” value ([2]; Day 22 vs baseline) was −1.47, the “IL17A expression, Niclosamide vs. Predose (qRT-PCR)” value ([2]; Day 22 vs baseline) was −2.23 and the “IL17C expression, Niclosamide vs. Predose (qRT-PCR)” value ([2]; Day 22 vs baseline) was −3.24. The “IL17F expression, Niclosamide vs. Predose (qRT-PCR)” value ([2]; Day 22 vs baseline) was 1.02, the “IL19 expression, Niclosamide vs. Predose (qRT-PCR)” value ([2]; Day 22 vs baseline) was −3.26 and the “IL22 expression, Niclosamide vs. Predose (qRT-PCR)” value ([2]; Day 22 vs baseline) was −2.86. The “IL23A expression, Niclosamide vs. Predose (qRT-PCR)” value ([2]; Day 22 vs baseline) was −2.13, the “IL31 expression, Niclosamide vs. Predose (qRT-PCR)” value ([2]; Day 22 vs baseline) was −1.85 and the “IL33 expression, Niclosamide vs. Predose (qRT-PCR)” value ([2]; Day 22 vs baseline) was −1.08. The “KRT16 expression, Niclosamide vs. Predose (qRT-PCR)” value ([2]; Day 22 vs baseline) was −3.88, the “LOR expression, Niclosamide vs. Predose (qRT-PCR)” value ([2]; Day 22 vs baseline) was 1.67 and the “MMP12 expression, Niclosamide vs. Predose (qRT-PCR)” value ([2]; Day 22 vs baseline) was −3.27. The “PI3 expression, Niclosamide vs. Predose (qRT-PCR)” value ([2]; Day 22 vs baseline) was −4.52, the “PPL expression, Niclosamide vs. Predose (qRT-PCR)” value ([2]; Day 22 vs baseline) was −1.07 and the “S100A7 expression, Niclosamide vs. Predose (qRT-PCR)” value ([2]; Day 22 vs baseline) was −3.04. The “S100A8 expression, Niclosamide vs. Predose (qRT-PCR)” value ([2]; Day 22 vs baseline) was −3.85, the “S100A9 expression, Niclosamide vs. Predose (qRT-PCR)” value ([2]; Day 22 vs baseline) was −3.47 and the “S100A12 expression, Niclosamide vs. Predose (qRT-PCR)” value ([2]; Day 22 vs baseline) was −4.29. The “TSLPR expression, Niclosamide vs. Predose (qRT-PCR)” value ([2]; Day 22 vs baseline) was −1.82, the “FLG expression, Niclosamide vs. Predose (qRT-PCR)” value [2, 5] was “increased significantly” and the “LOR expression, Niclosamide vs. Predose (qRT-PCR)” value [2, 5] was “increased significantly”. For the same compound, the skin thickness [3] was “No differences”.
